Among the test systems are UACC-62; HCT-116; MDA-MB-231; K562; A498; HT-29; A549; OVCAR-8; HOP-92; NCI-H522; SF-268; HCT-15; SF-295; Hs-578T; HCC 2998; BT-549; SK-MEL-5; OVCAR-3; T47D; DU-145.
Holding throughout (test): NCI-60 cell line screen, 48 h

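Where inhibition never reached the appropriate level, the endpoint shown equals the highest concentration tested. Otherwise, values were interpolated linearly from a five-concentration, 48-hour dose response in 96-well plates. GI50: concentration for 50% inhibition of growth.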 Calls of active or inactive are those of the source. Rule as the data show it: active = GI50 up to about 1.1 µM and inactive = higher. A value given as a limit tells only on which side of the number the result lay.

As for `Cc1cc2c(cc1Cl)SC(NNc1cnc3ccccc3n1)=NS2(=O)=O`, the GI50 was 60.7 µM (inactive) in the assay with UACC-62; 48.1 µM (inactive) in the assay with HCT-116; 61 µM (inactive) with MDA-MB-231; 73.3 µM (inactive) in the assay on K562; 22.8 µM (inactive) in the assay with A498; > 100 µM (inactive) in the assay with HT-29. Further, the GI50 is 78.9 µM (inactive) in the assay with A549; 68.5 µM (inactive) in the assay on OVCAR-8; 35.7 µM (inactive) in the assay with HOP-92; > 100 µM (inactive) in the assay with NCI-H522; 32.3 µM (inactive) in the assay on SF-268; 75.2 µM in the assay with HCT-15. Moreover, the GI50 is 29.9 µM (inactive) in the assay on SF-295; 51.9 µM (inactive) with Hs-578T; 67.9 µM (inactive) in the assay with HCC 2998; > 100 µM (inactive) with BT-549; 66.7 µM (inactive) in the assay on SK-MEL-5; 47.4 µM (inactive) in the assay on OVCAR-3. Moreover, the GI50 with T47D is 55.1 µM (inactive); in the assay on DU-145 it was > 100 µM (inactive).
As to `O=c1[nH]cnc2c1ncn2[C@@H]1C[C@@H]1CO`, the GI50 in the assay on UACC-62 is > 100 µM (inactive); with HCT-116, > 100 µM (inactive); in the assay with MDA-MB-231 it was > 100 µM (inactive); with K562, > 100 µM (inactive); in the assay with A498 it was > 10 µM (inactive); in the assay with HT-29, > 100 µM (inactive). For the same compound, the GI50 was > 100 µM (inactive) with A549; > 100 µM (inactive) in the assay on OVCAR-8; > 100 µM (inactive) in the assay with HOP-92; > 100 µM (inactive) with NCI-H522; > 100 µM (inactive) in the assay on SF-268; above 100 µM in the assay with HCT-15. For the same compound, the GI50 is 6.22 µM (inactive) in the assay with Hs-578T; > 100 µM (inactive) in the assay on HCC 2998; > 100 µM (inactive) with BT-549; > 100 µM (inactive) with SK-MEL-5; > 100 µM (inactive) in the assay with T47D; > 100 µM (inactive) in the assay with DU-145.
Consider `O=C(O)c1cccc(Nc2c(C(=O)O)cccc2[N+](=O)[O-])c1`, for which the GI50 in the assay with UACC-62, in the assay on HCT-116, with MDA-MB-231, in the assay on K562, in the assay with A498 and in the assay with HT-29 was > 100 µM (inactive) each time. In addition, the GI50 is > 100 µM (inactive) in the assay on A549; > 100 µM (inactive) in the assay with OVCAR-8; > 100 µM (inactive) in the assay on HOP-92; > 100 µM (inactive) with NCI-H522; above 100 µM in the assay on HCT-15; > 100 µM (inactive) with SF-295. Also, the GI50 in the assay with Hs-578T, with HCC 2998, in the assay on BT-549, with SK-MEL-5, in the assay on OVCAR-3 and with T47D was > 100 µM (inactive) in each case. In addition, in the assay with DU-145, the GI50 was > 100 µM (inactive).
Take `O=C(O)c1cc(Cl)cc(Cc2cc(Cl)cc(C(=O)O)c2O)c1O`: the GI50 in the assay on UACC-62, in the assay on HCT-116, with MDA-MB-231, with K562, in the assay on A498 and in the assay on HT-29 was > 100 µM (inactive) in each case. Moreover, the GI50 in the assay on A549 is > 100 µM (inactive); in the assay on OVCAR-8, > 100 µM (inactive); in the assay on HOP-92, > 100 µM (inactive); with NCI-H522, > 100 µM (inactive); with SF-268, > 100 µM (inactive); in the assay with HCT-15, above 100 µM. Moreover, the GI50 in the assay with SF-295, in the assay with Hs-578T, with BT-549, with SK-MEL-5, in the assay on OVCAR-3 and with T47D was > 100 µM (inactive) each time. For the same compound, the GI50 in the assay on DU-145 is > 100 µM (inactive).
For `CC(C)OC1=C(CC2(C)OCCO2)C(=O)C12OCCO2`, the GI50 with UACC-62, in the assay with HCT-116, in the assay with MDA-MB-231, in the assay on A498, in the assay on HT-29 and with A549 was > 100 µM (inactive) each time. The GI50 in the assay on OVCAR-8 is > 100 µM (inactive); in the assay with HOP-92 it was > 100 µM (inactive); in the assay on NCI-H522, 40.4 µM (inactive); in the assay with SF-268, > 100 µM (inactive); in the assay on HCT-15, above 100 µM; with SF-295, > 100 µM (inactive). Further, the GI50 in the assay with Hs-578T, with BT-549, with SK-MEL-5, in the assay with OVCAR-3, in the assay with T47D and in the assay on DU-145 was > 100 µM (inactive) in each case.
In the case of `NS(=O)(=O)c1nnc(NC(=O)c2ccccc2)s1`, the GI50 with UACC-62, in the assay on HCT-116, in the assay on MDA-MB-231, with K562, in the assay on A498 and in the assay with A549 was > 100 µM (inactive) in each case. The GI50 in the assay with OVCAR-8 was > 100 µM (inactive); with HOP-92, 65.3 µM (inactive); in the assay with NCI-H522, > 100 µM (inactive); in the assay with SF-268 it was > 100 µM (inactive); in the assay with HCT-15 it was above 100 µM; in the assay with SF-295, > 100 µM (inactive). The GI50 with Hs-578T, with HCC 2998, in the assay with BT-549, in the assay with SK-MEL-5, in the assay with OVCAR-3 and in the assay on T47D was > 100 µM (inactive) each time. Moreover, the GI50 in the assay with DU-145 is > 100 µM (inactive).
For the compound `CN(C)c1ccc(C2SCC(=O)N2c2ccc(Oc3ccc(Cl)cc3)c(Cl)c2)cc1` (stereo unspecified), the GI50 with UACC-62 was 19 µM (inactive); in the assay with HCT-116, 16.7 µM (inactive); in the assay on MDA-MB-231, 20.4 µM (inactive); in the assay on HT-29 it was 20.2 µM (inactive); with A549, 22.7 µM (inactive); with OVCAR-8, 28.2 µM (inactive). Also, the GI50 in the assay on HOP-92 was 21.8 µM (inactive); in the assay with NCI-H522, 18.3 µM (inactive); in the assay on SF-268 it was 13.8 µM (inactive); with HCT-15 it was 24.2 µM; in the assay on SF-295, > 10 µM (inactive); in the assay on Hs-578T, 14.4 µM (inactive). In addition, the GI50 in the assay with HCC 2998 is 22.3 µM (inactive); in the assay on BT-549, 17 µM (inactive); in the assay on SK-MEL-5, 19.1 µM (inactive); with OVCAR-3, 23.3 µM (inactive); in the assay on T47D it was 15.3 µM (inactive); in the assay on DU-145 it was 16.7 µM (inactive).
For `Cc1cc2c(cc1Cl)Sc1nnc(Nc3ccccc3)n1S2(=O)=O`, the GI50 in the assay on HCT-116 is 9.64 µM (inactive); with MDA-MB-231, 11.7 µM (inactive); with K562 it was 8.69 µM (inactive); with A498, 12.7 µM (inactive); with HT-29, 23.4 µM (inactive); in the assay with A549, 12.1 µM (inactive). For the same compound, the GI50 is 5.97 µM (inactive) with OVCAR-8; 5.57 µM (inactive) with HOP-92; 2.93 µM (inactive) in the assay on NCI-H522; 2.32 µM (inactive) in the assay on SF-268; 5.07 µM in the assay with HCT-15; 13.3 µM (inactive) in the assay on SF-295. For the same compound, the GI50 in the assay with Hs-578T was 3.15 µM (inactive); with HCC 2998, 3.96 µM (inactive); in the assay with BT-549, 7.78 µM (inactive); with SK-MEL-5, 11.7 µM (inactive); with OVCAR-3, 2.2 µM (inactive); with T47D it was 7.78 µM (inactive). The GI50 with DU-145 was 18.2 µM (inactive).
Take `c1cc2c(cc1C1=NCCN1)c1cc(C3=NCCN3)ccc1n2CC1CCCCC1`: the GI50 is 12.9 µM (inactive) in the assay on HCT-116; 16.6 µM (inactive) in the assay on MDA-MB-231; 14.8 µM (inactive) in the assay on K562; > 100 µM (inactive) in the assay with A498; 11.5 µM (inactive) in the assay with HT-29; 19.1 µM (inactive) with A549. The GI50 in the assay on OVCAR-8 is 25.4 µM (inactive); with HOP-92, 8 µM (inactive); in the assay on NCI-H522, 4.94 µM (inactive); with SF-268, 4.31 µM (inactive); in the assay on HCT-15 it was above 100 µM; with SF-295 it was 32.1 µM (inactive). For the same compound, the GI50 was 6.19 µM (inactive) with Hs-578T; 18.5 µM (inactive) in the assay with BT-549; 11.9 µM (inactive) in the assay with SK-MEL-5; 21.2 µM (inactive) with OVCAR-3; 19.1 µM (inactive) in the assay on T47D; 18.1 µM (inactive) in the assay with DU-145.
For `CC1OC2OC3C(OCC(O)C3O)OC(=O)[C@]34CCC(C)(C)CC3C3=CCC5[C@@]6(C)C[C@H](O)[C@H](OC7OC(CO)C(O)C(O)C7OC7OC(COC(=O)CC(C)(O)CC(=O)OC1C(OC1OC(CO)C(O)C(O)C1O)C2O)C(O)C(O)C7O)[C@@](C)(CO)C6CC[C@@]5(C)[C@]3(C)CC4` (stereo partly specified), the GI50 with UACC-62 is 1.64 µM (inactive); with HCT-116, 2.59 µM (inactive); in the assay with MDA-MB-231, 7.52 µM (inactive); in the assay with HT-29 it was 1.52 µM (inactive); in the assay with A549, 0.14 µM (active); in the assay on OVCAR-8 it was 3.92 µM (inactive). Also, the GI50 in the assay with HOP-92 was 2.24 µM (inactive); in the assay with NCI-H522, 2 µM (inactive); in the assay with SF-268, 2.94 µM (inactive); with HCT-15, 6.25 µM; with SF-295, 1.52 µM (inactive); with Hs-578T, 8 µM (inactive). For the same compound, the GI50 in the assay on HCC 2998 was 1.42 µM (inactive); in the assay with BT-549, 6.03 µM (inactive); in the assay on SK-MEL-5, 0.137 µM (active); in the assay with OVCAR-3 it was 4.35 µM (inactive); in the assay on T47D, 3.34 µM (inactive); with DU-145, 2.61 µM (inactive).

The values above are taken from ChEMBL document CHEMBL1201862, “PubChem BioAssay data set” (2004).
